Results from patent publication US20230243002A1, “ASSAY OT DETECT VIRUS” (priority 2020, published 2023).

Key:
luciferase = luciferase (Photinus pyralis, UniProt P08659); assay: Background LU of reaction with only luciferase and no viral RNA, dATP versus dATPαS; assay type: biochemical
[1] = tested on: SARS-CoV-2, USA-WA1/2020 RNA; assay: ID-Oligos assay signal output with dC/T/G only or supplemented with dATPαS; assay type: biochemical; conditions: supplemented with 0.1 mM dATPαS versus only dT/G/C
[2] = tested on: luminescence output of luciferase; assay: Compounds and reagents that inhibit or interfere with the ID-Oligo luminescence methods; assay type: biochemical
From the text: Various compounds and components may interfere with the methods described herein. […] Thus, in some embodiments, the sample is free of compounds and components that inhibit the luminescence output of luciferase. Accordingly, the sample may be free of sodium-azide, sodium-citrate, heparin, EDTA, EGTA, proteases, phosphates, 2,2′-azino-di-(3-ethylbenzothiazoline)-6-sulfonic acid (ABTS), and/or butylated hydroxytoluene (BHT). In various related aspects, the present application also relates to devices and kits for performing the methods described herein. Such kits contain monitors, reagents and procedures that can be utilized in a clinical or research setting or adapted for either the field laboratory or on-site use. In particular, kits comprising the disclosed reagents used in practicing the methods described herein include any of a number of means for detecting the captured target nucleic acid molecule and measuring the bioluminescent signal produced subsequent to target capture, along with appropriate instructions, are contemplated. Suitable kits comprise reagents sufficient for performing an assay, or one or more independent steps of an assay, to detect a target nucleic acid molecule, as described herein above.

[3] = tested on: coupled ATPS-luciferase reaction; conditions: 0.04% Na-Azide, LU measured for 200 seconds

Sequence of luciferase (P08659 whole entry): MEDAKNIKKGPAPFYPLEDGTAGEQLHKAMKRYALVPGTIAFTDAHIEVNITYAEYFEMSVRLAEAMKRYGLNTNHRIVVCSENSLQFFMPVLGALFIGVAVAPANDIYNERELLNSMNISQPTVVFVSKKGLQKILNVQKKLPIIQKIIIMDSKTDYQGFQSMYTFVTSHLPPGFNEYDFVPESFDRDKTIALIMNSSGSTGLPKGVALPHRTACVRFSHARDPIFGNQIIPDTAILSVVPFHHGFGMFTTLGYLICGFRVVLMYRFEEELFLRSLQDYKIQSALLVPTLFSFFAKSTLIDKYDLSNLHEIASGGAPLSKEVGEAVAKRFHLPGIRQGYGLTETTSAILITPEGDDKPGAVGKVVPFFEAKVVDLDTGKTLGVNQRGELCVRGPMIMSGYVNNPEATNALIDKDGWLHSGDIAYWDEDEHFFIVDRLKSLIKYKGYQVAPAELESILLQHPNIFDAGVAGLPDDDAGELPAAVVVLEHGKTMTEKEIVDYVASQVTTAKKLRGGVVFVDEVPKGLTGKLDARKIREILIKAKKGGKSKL

Row | Compound | inhibit or interfere with the methods described herein [2] | other results
1 | Nc1ncnc2c1ncn2[C@H]1C[C@H](O)[C@@H](COP(O)(=S)OP(=O)(O)OP(=O)(O)O)O1 (some centres unmarked) [dATPαS] | – | improved signal-to-noise ratio (luciferase): ~2 orders of magnitude; LU background (luciferase; 0.1 mM/1 mM, luciferase only, no viral RNA): reduction; reaction slope [1]: Higher slope values
2 | O=C(O)CN(CCN(CC(=O)O)CC(=O)O)CC(=O)O [EDTA] | inhibit or interfere | –
3 | O=C([O-])CC(O)(CC(=O)[O-])C(=O)[O-].[Na+].[Na+].[Na+] [Na-citrate] | inhibit or interfere | –
4 | Cc1cc(C(C)(C)C)c(O)c(C(C)(C)C)c1 [BHT, butylated hydroxytoluene] | inhibit or interfere | –
5 | CCn1c(=NN=c2sc3cc(S(=O)(=O)O)ccc3n2CC)sc2cc(S(=O)(=O)O)ccc21 [ABTS, 2,2′-azino-di-(3-ethylbenzothiazoline)-6-sulfonic acid] | inhibit or interfere | –
6 | [N-]=[N+]=[N-].[Na+] [Na-azide] | inhibit or interfere | effect on the luminescence output of the coupled ATPS-luciferase reaction [3]: inhibitory effect
7 | O=C(O)CN(CCOCCOCCN(CC(=O)O)CC(=O)O)CC(=O)O [EGTA] | inhibit or interfere | –
8 | heparin | inhibit or interfere | –
